Reference: ChEMBL document CHEMBL1201862, “PubChem BioAssay data set” (2004)
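Results reflect a 48-hour exposure of cells in 96-well plates to compound at five concentrations. GI50 = concentration required for 50% inhibition of growth.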 Activity calls are given as the source filed them. Rule as the data show it: active = GI50 up to about 1.1 µM and inactive = higher.

Key:
Assay in all cases: inhibition of tumour cell growth, NCI panel, 48 h
[1] = tested on: RXF 393
[2] = tested on: SW-620
[3] = tested on: M14
[4] = tested on: COLO 205
[5] = tested on: SK-OV-3
[6] = tested on: HT-29
[7] = tested on: NCI-H522
[8] = tested on: NCI-H23
[9] = tested on: DMS-114
[10] = tested on: OVCAR-8
[11] = tested on: SF-268
[12] = tested on: UO-31
[13] = tested on: A498
[14] = tested on: SN12C
[15] = tested on: LXFL 529
[16] = tested on: SK-MEL-2
[17] = tested on: OVCAR-4
[18] = tested on: EKVX
[19] = tested on: XF498
[20] = tested on: LOX IMVI
[21] = tested on: RXF 631
[22] = tested on: RPMI-8226
[23] = tested on: U-251
[24] = tested on: HOP-62
[25] = tested on: Malme-3M
[26] = tested on: HL-60
[27] = tested on: K562
[28] = tested on: CCRF-CEM
[29] = tested on: M19-MEL
[30] = tested on: SNB-78
[31] = tested on: TK-10
[32] = tested on: NCI-H460
[33] = tested on: MOLT-4
[34] = tested on: HCT-15
[35] = tested on: SNB-19
[36] = tested on: KM12
[37] = tested on: SNB-75
[38] = tested on: SF-539
[39] = tested on: NCI-H226
[40] = tested on: SF-295
[41] = tested on: 786-0
[42] = tested on: HCT-116
[43] = tested on: OVCAR-5
[44] = tested on: HCC 2998
[45] = tested on: UACC-257
[46] = tested on: A549
[47] = tested on: HOP-18
[48] = tested on: SK-MEL-28
[49] = tested on: UACC-62
[50] = tested on: DLD-1
[51] = tested on: KM-20L2
[52] = tested on: ACHN
[53] = tested on: OVCAR-3
[54] = tested on: DMS-273
[55] = tested on: IGROV-1
[56] = tested on: HOP-92
[57] = tested on: SK-MEL-5
[58] = tested on: CAKI-1

Cc1oc2c(C)c3oc(=O)cc(C)c3cc2c1CN
GI50 [1]: 15.9 µM (inactive) | GI50 [2]: 19.5 µM (inactive) | GI50 [3]: 38.5 µM (inactive) | GI50 [4]: 33.1 µM (inactive) | GI50 [5]: 23.7 µM (inactive) | GI50 [6]: 31.9 µM (inactive) | GI50 [7]: 42.4 µM (inactive) | GI50 [8]: 45.8 µM (inactive) | GI50 [9]: 41.2 µM (inactive) | GI50 [10]: 40.6 µM (inactive) | GI50 [11]: 31 µM (inactive) | GI50 [12]: 30.1 µM (inactive) | GI50 [13]: 41.5 µM (inactive) | GI50 [14]: 42.5 µM (inactive) | GI50 [15]: 37.5 µM (inactive) | GI50 [16]: 46.1 µM (inactive) | GI50 [17]: 40.6 µM (inactive) | GI50 [18]: 42.6 µM (inactive) | GI50 [19]: 20.7 µM (inactive) | GI50 [20]: 16.2 µM (inactive) | GI50 [21]: 29.1 µM (inactive) | GI50 [22]: 39.4 µM (inactive) | GI50 [23]: 23 µM (inactive) | GI50 [24]: 38.8 µM (inactive) | GI50 [25]: 25.2 µM (inactive) | GI50 [26]: 39 µM (inactive) | GI50 [27]: 37.6 µM (inactive) | GI50 [28]: 41.9 µM (inactive) | GI50 [29]: 31 µM (inactive) | GI50 [30]: 53.5 µM (inactive) | GI50 [31]: 27.8 µM (inactive) | GI50 [32]: 27.9 µM (inactive) | GI50 [33]: 24.7 µM (inactive) | GI50 [34]: 36.9 µM | GI50 [35]: 41.5 µM (inactive) | GI50 [36]: 49.5 µM (inactive) | GI50 [37]: 33.9 µM (inactive) | GI50 [38]: 40.9 µM (inactive) | GI50 [39]: 34.4 µM (inactive) | GI50 [40]: 38 µM (inactive) | GI50 [41]: 39.9 µM (inactive) | GI50 [42]: 22.8 µM (inactive) | GI50 [43]: 42.1 µM (inactive) | GI50 [44]: 28.1 µM (inactive) | GI50 [45]: 41.3 µM (inactive) | GI50 [46]: 40.3 µM (inactive) | GI50 [47]: > 100 µM (inactive) | GI50 [48]: 71 µM (inactive) | GI50 [49]: 92.3 µM (inactive) | GI50 [50]: 43.3 µM (inactive) | GI50 [51]: 34.4 µM (inactive) | GI50 [52]: 27.7 µM (inactive) | GI50 [53]: 61.4 µM (inactive)

O=C1C[C@H]2CCCN2[C@@H](c2ccccc2)C1
GI50 [1]: > 100 µM (inactive) | GI50 [2]: > 100 µM (inactive) | GI50 [3]: > 100 µM (inactive) | GI50 [4]: > 100 µM (inactive) | GI50 [5]: > 100 µM (inactive) | GI50 [6]: > 100 µM (inactive) | GI50 [7]: > 100 µM (inactive) | GI50 [8]: > 100 µM (inactive) | GI50 [10]: > 100 µM (inactive) | GI50 [11]: > 100 µM (inactive) | GI50 [12]: > 100 µM (inactive) | GI50 [13]: > 100 µM (inactive) | GI50 [14]: > 100 µM (inactive) | GI50 [15]: > 100 µM (inactive) | GI50 [16]: > 100 µM (inactive) | GI50 [17]: > 100 µM (inactive) | GI50 [18]: > 100 µM (inactive) | GI50 [19]: > 100 µM (inactive) | GI50 [20]: > 100 µM (inactive) | GI50 [54]: > 100 µM (inactive) | GI50 [21]: > 100 µM (inactive) | GI50 [22]: > 100 µM (inactive) | GI50 [23]: > 100 µM (inactive) | GI50 [24]: > 100 µM (inactive) | GI50 [25]: > 100 µM (inactive) | GI50 [26]: > 100 µM (inactive) | GI50 [55]: > 100 µM (inactive) | GI50 [27]: > 100 µM (inactive) | GI50 [28]: > 100 µM (inactive) | GI50 [29]: > 100 µM (inactive) | GI50 [30]: > 100 µM (inactive) | GI50 [56]: > 100 µM (inactive) | GI50 [31]: > 100 µM (inactive) | GI50 [32]: > 100 µM (inactive) | GI50 [57]: > 100 µM (inactive) | GI50 [58]: > 100 µM (inactive) | GI50 [33]: > 100 µM (inactive) | GI50 [34]: > 100 µM | GI50 [35]: > 100 µM (inactive) | GI50 [36]: > 100 µM (inactive) | GI50 [37]: > 100 µM (inactive) | GI50 [38]: > 100 µM (inactive) | GI50 [39]: > 100 µM (inactive) | GI50 [40]: > 100 µM (inactive) | GI50 [41]: > 100 µM (inactive) | GI50 [42]: > 100 µM (inactive) | GI50 [43]: > 100 µM (inactive) | GI50 [44]: > 100 µM (inactive) | GI50 [45]: > 100 µM (inactive) | GI50 [46]: > 100 µM (inactive) | GI50 [47]: > 100 µM (inactive) | GI50 [48]: > 100 µM (inactive) | GI50 [49]: > 100 µM (inactive) | GI50 [51]: > 100 µM (inactive) | GI50 [52]: > 100 µM (inactive) | GI50 [53]: > 100 µM (inactive)

C=C1CCCC2[C@](C)(CC3=C(O)C(=O)C=C(OC)C3=O)[C@@H](C)CC[C@]12C (stereo partly drawn)
GI50 [1]: 2.73 µM (inactive) | GI50 [2]: 3.01 µM (inactive) | GI50 [3]: 1.81 µM (inactive) | GI50 [4]: 7.35 µM (inactive) | GI50 [5]: 12.6 µM (inactive) | GI50 [6]: 10.9 µM (inactive) | GI50 [7]: 6.82 µM (inactive) | GI50 [8]: 3.05 µM (inactive) | GI50 [9]: 1.99 µM (inactive) | GI50 [10]: 4.41 µM (inactive) | GI50 [11]: 4.31 µM (inactive) | GI50 [13]: 6.27 µM (inactive) | GI50 [14]: 10.5 µM (inactive) | GI50 [15]: 6.04 µM (inactive) | GI50 [16]: 2.45 µM (inactive) | GI50 [17]: 5.65 µM (inactive) | GI50 [18]: 6.28 µM (inactive) | GI50 [19]: 16.7 µM (inactive) | GI50 [20]: 4.97 µM (inactive) | GI50 [21]: 9.62 µM (inactive) | GI50 [22]: 2.74 µM (inactive) | GI50 [23]: 4.06 µM (inactive) | GI50 [25]: 2.9 µM (inactive) | GI50 [26]: 2.4 µM (inactive) | GI50 [55]: 3.22 µM (inactive) | GI50 [27]: 4.07 µM (inactive) | GI50 [28]: 2.36 µM (inactive) | GI50 [29]: 1.81 µM (inactive) | GI50 [31]: 7.16 µM (inactive) | GI50 [32]: 2.8 µM (inactive) | GI50 [57]: 2.42 µM (inactive) | GI50 [58]: 3.62 µM (inactive) | GI50 [34]: 2.71 µM | GI50 [36]: 2.72 µM (inactive) | GI50 [37]: 3.94 µM (inactive) | GI50 [38]: 2.79 µM (inactive) | GI50 [40]: 2.51 µM (inactive) | GI50 [41]: 2.64 µM (inactive) | GI50 [42]: 3.71 µM (inactive) | GI50 [44]: 7.89 µM (inactive) | GI50 [45]: 3.3 µM (inactive) | GI50 [46]: 2.86 µM (inactive) | GI50 [47]: 1.7 µM (inactive) | GI50 [48]: 3.99 µM (inactive) | GI50 [49]: 2.22 µM (inactive) | GI50 [50]: 7.18 µM (inactive) | GI50 [51]: 4.24 µM (inactive) | GI50 [52]: 4.06 µM (inactive) | GI50 [53]: 3.53 µM (inactive)
